From patent US12391737B2, “Soluble NPY2 receptor agonists” (Boehringer Ingelheim International GmbH, priority 2020, dated 2025)

Key:
Solubility determination = conditions: for Sol6: pH 6; for Sol7: pH 7
Outline: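 First, TFA-salt peptide was added to 0.1 M sodium diphosphate (pH 6.4 or 7.0) to 10 mg/ml and shaken 2 h at room temperature. Next, insoluble material was filtered off. Finally, filtrate and control, each 1 mg/ml in 50% acetonitrile, were compared by reversed-phase chromatography.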

[1] = molecular target: T1, Human Neuropeptide Y2 Receptor (Homo sapiens, UniProt P49146); assay: Radioligand binding competition assay (RLB); conditions: Table 3, 125I-PYY(1-36) competition; read-out: Ki
T1 construct: purchased CHEMICON HTS066M
T1 sequence (P49146 1-381): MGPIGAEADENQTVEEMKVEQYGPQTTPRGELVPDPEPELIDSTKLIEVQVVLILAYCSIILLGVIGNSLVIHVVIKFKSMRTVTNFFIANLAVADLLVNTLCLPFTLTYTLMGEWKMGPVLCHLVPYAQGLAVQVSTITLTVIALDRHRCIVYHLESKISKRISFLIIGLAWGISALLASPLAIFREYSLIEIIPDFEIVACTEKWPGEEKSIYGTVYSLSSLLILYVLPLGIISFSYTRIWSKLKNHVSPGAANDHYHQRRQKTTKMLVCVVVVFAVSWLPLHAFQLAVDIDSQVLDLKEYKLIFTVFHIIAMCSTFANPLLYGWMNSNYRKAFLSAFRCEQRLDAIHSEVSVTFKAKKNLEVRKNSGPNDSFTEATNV
Outline: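 Displacement of radioligand is measured after 2 h at room temperature with receptor membranes in Mg2+/Ca2+ HEPES buffer, pH 7.4. Filter-bound radioactivity is counted and IC50 obtained from curve fitting.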

Structure (SMILES)	Sol6 (Solubility determination) [mg/mL]	Sol7 (Solubility determination) [mg/mL]	Ki [1] [nM]
CC(C)CC(=O)N[C@@H](C)C(=O)N1CCC[C@H]1C(=O)N[C@@H](CCC(=O)O)C(=O)N[C@@H](CCCCNC(=O)CCCCCNC(=O)CC[C@H](NC(=O)CCCCCCCCCCCCCCCCC(=O)O)C(=O)O)C(=O)N1CCC[C@H]1C(=O)N[C@@H](CCC(=O)O)C(=O)N[C@@H](CCC(=O)O)C(=O)N[C@@H](CC(=O)O)C(=O)N[C@@H](C)C(=O)N[C@H](C(=O)N1CCC[C@H]1C(=O)N[C@@H](CCC(=O)O)C(=O)N[C@@H](CCC(=O)O)C(=O)N[C@@H](CC(C)C)C(=O)N[C@@H](CCC(N)=O)C(=O)N1CCC[C@H]1C(=O)N[C@@H](Cc1ccc(O)cc1)C(=O)N[C@@H](Cc1ccc(O)cc1)C(=O)N[C@H](C(=O)N[C@@H](CO)C(=O)N[C@@H](CC(C)C)C(=O)N[C@@H](CCCNC(=N)N)C(=O)N[C@@H](Cc1c[nH]cn1)C(=O)N[C@@H](Cc1ccc(O)cc1)C(=O)N[C@@H](Cc1ccc(O)cc1)C(=O)N[C@@H](CC(N)=O)C(=O)N[C@@H](Cc1c[nH]c2ccccc12)C(=O)N[C@@H](CC(C)C)C(=O)N[C@H](C(=O)N[C@@H](CCCNC(=N)N)C(=O)N[C@@H](CCC(N)=O)C(=O)N[C@@H](CCCNC(=N)N)C(=O)N[C@@H](Cc1ccc(O)cc1)C(N)=O)[C@@H](C)O)C(C)C)[C@@H](C)O [Compound 31, N{alpha-4}-(3-methylbutanoyl)-N{epsilon-7}-(6-[(4S)-4-carboxy-4-(17-carboxyheptadecanamido)butanamido]hexanoyl)[4A,7K,9E,13T,18Q,19P,22V,28Y,30W,31L]-hPYY(4-36)]	>10.0	10.0	34.7
CC(C)CC(=O)N[C@@H](C)C(=O)N1CCC[C@H]1C(=O)N[C@@H](C)C(=O)N[C@@H](CCCCNC(=O)CCCCCNC(=O)CC[C@H](NC(=O)CCCCCCCCCCCCCCCCC(=O)O)C(=O)O)C(=O)N1CCC[C@H]1C(=O)N[C@@H](CCC(=O)O)C(=O)N[C@@H](CCC(=O)O)C(=O)N[C@@H](CC(=O)O)C(=O)N[C@@H](C)C(=O)N[C@@H](CO)C(=O)N1CCC[C@H]1C(=O)N[C@@H](CCC(=O)O)C(=O)N[C@@H](CCC(=O)O)C(=O)N[C@@H](CC(C)C)C(=O)N[C@@H](CCC(N)=O)C(=O)N[C@@H](CCCNC(=N)N)C(=O)N[C@@H](Cc1ccc(O)cc1)C(=O)N[C@@H](Cc1ccc(O)cc1)C(=O)N[C@H](C(=O)N[C@@H](CO)C(=O)N[C@@H](CC(C)C)C(=O)N[C@@H](CCCNC(=N)N)C(=O)N[C@@H](Cc1c[nH]cn1)C(=O)N[C@@H](CCC(N)=O)C(=O)N[C@@H](Cc1ccc(O)cc1)C(=O)N[C@@H](CC(N)=O)C(=O)N[C@@H](Cc1c[nH]c2ccccc12)C(=O)N[C@@H](CC(C)C)C(=O)N[C@H](C(=O)N[C@@H](CCCNC(=N)N)C(=O)N[C@@H](CCC(N)=O)C(=O)N[C@@H](CCCNC(=N)N)C(=O)N[C@@H](Cc1ccc(O)cc1)C(N)=O)[C@@H](C)O)C(C)C [Compound 32, N{alpha-4}-(3-methylbutanoyl)-N{epsilon-7}-(6-[(4S)-4-carboxy-4-(17-carboxyheptadecanamido)butanamido]hexanoyl)[4A,6A,7K,9E,18Q,22V,27Q,28Y,30W,31L]-hPYY(4-36)]	8.2	9.3	13.6
CC(C)CC(=O)N[C@@H](C)C(=O)N1CCC[C@H]1C(=O)N[C@@H](CCC(=O)O)C(=O)N[C@@H](CCCCNC(=O)CCCCCNC(=O)CC[C@H](NC(=O)CCCCCCCCCCCCCCCCC(=O)O)C(=O)O)C(=O)N1CCC[C@H]1C(=O)N[C@@H](CCC(=O)O)C(=O)N[C@@H](CCC(=O)O)C(=O)N[C@@H](CC(=O)O)C(=O)N[C@@H](C)C(=O)N[C@H](C(=O)N1CCC[C@H]1C(=O)N[C@@H](CCC(=O)O)C(=O)N[C@@H](CCC(=O)O)C(=O)N[C@@H](CC(C)C)C(=O)N[C@@H](CCC(N)=O)C(=O)N[C@@H](CCCNC(=N)N)C(=O)N[C@@H](Cc1ccc(O)cc1)C(=O)N[C@@H](Cc1ccc(O)cc1)C(=O)N[C@H](C(=O)N1CCC[C@H]1C(=O)N[C@@H](CC(C)C)C(=O)N[C@@H](CCCNC(=N)N)C(=O)N[C@@H](Cc1c[nH]cn1)C(=O)N[C@@H](Cc1ccc(O)cc1)C(=O)N[C@@H](Cc1ccc(O)cc1)C(=O)N[C@@H](CC(N)=O)C(=O)N[C@@H](Cc1c[nH]c2ccccc12)C(=O)N[C@@H](CC(C)C)C(=O)N[C@H](C(=O)N[C@@H](CCCNC(=N)N)C(=O)N[C@@H](CCC(N)=O)C(=O)N[C@@H](CCCNC(=N)N)C(=O)N[C@@H](Cc1ccc(O)cc1)C(N)=O)[C@@H](C)O)C(C)C)[C@@H](C)O [Compound 87, N{alpha-4}-(3-methylbutanoyl)-N{epsilon-7}-(6-[(4S)-4-carboxy-4-(17-carboxyheptadecanamido)butanamido]hexanoyl)-[4A,7K,9E,13T,18Q,22V,23P,28Y,30W,31L]-hPYY(4-36)]	9.7	9.7	22.4

These reach a lower Ki [1]. Values come first.

Sol6 (Solubility determination) [mg/mL]	Sol7 (Solubility determination) [mg/mL]	Ki [1] [nM]	Structure (SMILES)
9.8	9.6	4.2	CC[C@H](C)[C@H](NC(=O)[C@H](CCC(=O)O)NC(=O)[C@H](CCC(=O)O)NC(=O)[C@@H]1CCCN1C(=O)[C@H](CCC(=O)O)NC(=O)[C@H](C)NC(=O)[C@H](C)NC(=O)[C@H](CCC(=O)O)NC(=O)[C@H](CCC(=O)O)NC(=O)[C@@H]1CCCN1C(=O)[C@H](CCCCNC(=O)CCCCCNC(=O)CC[C@H](NC(=O)CCCCCCCCCCCCCCCCC(=O)O)C(=O)O)NC(=O)[C@H](CCC(=O)O)NC(=O)[C@@H]1CCCN1C(=O)[C@H](C)NC(=O)CC(C)C)C(=O)N[C@@H](CCC(N)=O)C(=O)N[C@@H](CCCNC(=N)N)C(=O)N[C@@H](Cc1ccc(O)cc1)C(=O)N[C@@H](Cc1ccc(O)cc1)C(=O)N[C@H](C(=O)N[C@@H](C)C(=O)N[C@@H](CC(C)C)C(=O)N[C@@H](CCCNC(=N)N)C(=O)N[C@@H](Cc1c[nH]cn1)C(=O)N[C@@H](Cc1ccc(O)cc1)C(=O)N[C@@H](Cc1ccc(O)cc1)C(=O)N[C@@H](CC(N)=O)C(=O)N[C@@H](Cc1c[nH]c2ccccc12)C(=O)N[C@@H](CC(C)C)C(=O)N[C@H](C(=O)N[C@@H](CCCNC(=N)N)C(=O)N[C@@H](CCC(N)=O)C(=O)N[C@@H](CCCNC(=N)N)C(=O)N[C@@H](Cc1ccc(O)cc1)C(N)=O)[C@@H](C)O)C(C)C [Compound 156, N{alpha-4}-(3-methylbutanoyl)-N{epsilon-7}-(6-[(4S)-4-carboxy-4-(17-carboxyheptadecanamido)butanamido]hexanoyl)-[4A,7K,9E,11A,13E,17I,18Q,22V,23A,28Y,30W,31L]-hPYY(4-36)]
8.9	8.9	2.65	CC[C@H](C)[C@H](NC(=O)[C@H](CCC(=O)O)NC(=O)[C@H](CCC(=O)O)NC(=O)[C@@H]1CCCN1C(=O)[C@H](CCC(N)=O)NC(=O)[C@H](C)NC(=O)[C@H](CC(=O)O)NC(=O)[C@H](CCC(=O)O)NC(=O)[C@H](CCC(=O)O)NC(=O)[C@@H]1CCCN1C(=O)[C@H](CCCCNC(=O)CCCCCNC(=O)CC[C@H](NC(=O)CCCCCCCCCCCCCCCCC(=O)O)C(=O)O)NC(=O)[C@H](CCC(=O)O)NC(=O)[C@@H]1CCCN1C(=O)[C@H](C)NC(=O)CC(C)C)C(=O)N[C@@H](CCC(N)=O)C(=O)N[C@@H](CCCNC(=N)N)C(=O)N[C@@H](Cc1ccc(O)cc1)C(=O)N[C@@H](Cc1ccc(O)cc1)C(=O)N[C@H](C(=O)N[C@@H](CO)C(=O)N[C@@H](CC(C)C)C(=O)N[C@@H](CCCNC(=N)N)C(=O)N[C@@H](Cc1c[nH]cn1)C(=O)N[C@@H](Cc1ccc(O)cc1)C(=O)N[C@@H](Cc1ccc(O)cc1)C(=O)N[C@@H](CC(N)=O)C(=O)N[C@@H](Cc1c[nH]c2ccccc12)C(=O)N[C@@H](CC(C)C)C(=O)N[C@H](C(=O)N[C@@H](CCCNC(=N)N)C(=O)N[C@@H](CCC(N)=O)C(=O)N[C@@H](CCCNC(=N)N)C(=O)N[C@@H](Cc1ccc(O)cc1)C(N)=O)[C@@H](C)O)C(C)C [Compound 81, N{alpha-4}-(3-methylbutanoyl)-N{epsilon-7}-(6-[(4S)-4-carboxy-4-(17-carboxyheptadecanamido)butanamido]hexanoyl)-[4A,7K,9E,13Q,17I,18Q,22V,28Y,30W,31L]-hPYY(4-36)]
0.0	2.4	1.4	CC(C)CC(=O)N[C@@H](C)C(=O)N1CCC[C@H]1C(=O)N[C@@H](C)C(=O)N[C@@H](CCCCNC(=O)CCCCCNC(=O)CC[C@H](NC(=O)CCCCCCCCCCCCCCCCC(=O)O)C(=O)O)C(=O)N1CCC[C@H]1C(=O)N[C@@H](CCC(=O)O)C(=O)N[C@@H](CCC(=O)O)C(=O)N[C@@H](C)C(=O)N[C@@H](C)C(=O)N[C@H](C(=O)N1CCC[C@H]1C(=O)N[C@@H](CCC(=O)O)C(=O)N[C@@H](CCC(=O)O)C(=O)N[C@@H](CC(C)C)C(=O)N[C@@H](CCC(N)=O)C(=O)N[C@@H](CCCNC(=N)N)C(=O)N[C@@H](Cc1ccc(O)cc1)C(=O)N[C@@H](Cc1ccc(O)cc1)C(=O)N[C@H](C(=O)N[C@@H](CO)C(=O)N[C@@H](CC(C)C)C(=O)N[C@@H](CCCNC(=N)N)C(=O)N[C@@H](Cc1c[nH]cn1)C(=O)N[C@@H](Cc1ccc(O)cc1)C(=O)N[C@@H](Cc1ccc(O)cc1)C(=O)N[C@@H](CC(N)=O)C(=O)N[C@@H](Cc1c[nH]c2ccccc12)C(=O)N[C@@H](CC(C)C)C(=O)N[C@H](C(=O)N[C@@H](CCCNC(=N)N)C(=O)N[C@@H](CCC(N)=O)C(=O)N[C@@H](CCCNC(=N)N)C(=O)N[C@@H](Cc1ccc(O)cc1)C(N)=O)[C@@H](C)O)C(C)C)[C@@H](C)O [Compound 35, N{alpha-4}-(3-methylbutanoyl)-N{epsilon-7}-(6-[(4S)-4-carboxy-4-(17-carboxyheptadecanamido)butanamido]hexanoyl)[4A,6A,7K,9E,11A,13T,18Q,22V,28Y,30W,31L]-hPYY(4-36)]
